Values quoted from earlier work as cited in publication PMC4533831 (Molecular pharmaceutics, 2015).

Tested on: IGF2R
Conditions: read-out: relative binding affinity IC50; affinity to IGF2R

IC50: 23 µM
SMILES: O=C[C@@H](O)[C@@H](O)[C@H](O)[C@H](O)COP(=O)(O)O [M6P, mannose-6-phosphate]
